Source: patent publication US5585492A, “LTA4 Hydrolase inhibitors” (priority 1994, dated 1996)

Tested on: LTB4 production in human blood
Test: Inhibition of Calcium Ionophore-Induced LTB4 Production in Human Blood (HWB)
Type: cell-based
Details: Homo sapiens, human whole blood, A23187 20 mcg/ml; read-out: Inhibition of Calcium Ionophore-Induced LTB4 Production in Human Blood IC50 HWB
Description: One or more concentrations of the leukotriene A4 hydrolass inhibitor compounds being tested were prepared (diluted in DMSO) and 2 μl added and gently mixed with the diluted whole blood. After incubating for 15 minutes at 37° C. in a humidified incubator, calcium ionophore A23187 (Sigma Chemical Co., St. Louis, Mo.) was added to a final concentration of 20 mcg/ml and the incubation continued under the same conditions for an additional 10 minutes to allow LTB4 formation. The reaction was terminated by centrifugation (833 g, 10 minutes at 4° C.) and supernatant were analyzed for LTB4 and thromboxane by commercially available enzyme-linked immunoassays (Caymen Chemical Co., Ann Arbor, Mich.) according to the manufacturer's instructions. The IC50 of each test compound was determined from the amount of inhibition of LTB4 production as compared to an essentially identical assay in which no inhibitor compound was present.

IC50	SMILES
800 nM	NC(=O)CCNC(=O)C1CCN(CCOc2ccc(Cc3ccccc3)cc2)CC1 [Example 421]
758 nM	CCOC(=O)[C@@H]1CCN(CCOc2ccc(Cc3ccccc3)cc2)[C@H](C)C1 (relative stereo) [Example 298]
21 nM	c1ccc(Cc2ccc3c(c2)CC(CN2CCCC2)O3)cc1 (centres unmarked) [Example 280]
450 nM	CCOC(=O)CCNCCCOc1ccc(Cc2ccccc2)cc1 [Example 265]
359 nM	C[C@@H]1C[C@H](C(N)=O)CCN1CCOc1ccc(Cc2ccccc2)cc1 (relative stereo) [Example 297]
2050 nM	c1ccc(Oc2ccc(OCCCn3cnc4cnccc43)cc2)cc1 [Example 351B]
316 nM	c1ccc(Oc2ccc3c(c2)CC(CN2CCCC2)O3)cc1 (centres unmarked) [Example 289]
650 nM	NC(=O)C1CCCN(CCOc2ccc(Cc3ccccc3)cc2)C1 (centres unmarked) [Example 243]
550 nM	O=C(O)C1CCN(CCOc2ccc(Cc3cccc(F)c3)cc2)CC1 [Example 436]
429 nM	CCOC(=O)CCNC(=O)C1CCN(CCOc2ccc(Cc3ccccc3)cc2)CC1 [Example 249]
440 nM	c1ccc(Cc2ccc(OCCCN3CCCC3)cc2)cc1 [Example 259]
1230 nM	COC(=O)C1(O)CCN(CCOc2ccc(Cc3ccccc3)cc2)CC1 [Example 305]
220 nM	CC1CCC(C)N1CCOc1ccc(Cc2ccccc2)cc1 (centres unmarked) [Example 399]
2340 nM	FC(F)(F)c1cccc(COc2ccc(OCCN3CCCC3)cc2)c1 [Example 209]
57 nM	[O-][n+]1cccc2c1ncn2CCOc1ccc(Cc2ccccc2)cc1 [Example 363]
470 nM	C[C@H]1C[C@@H](O)CCN1CCOc1ccc(Cc2ccccc2)cc1 (relative stereo) [Example 465]
850 nM	O=C(CCNCCCOc1ccc(Cc2ccccc2)cc1)N1CCOCC1 [Example 424]
700 nM	NC(=O)CCNCCCOc1ccc(Cc2ccccc2)cc1 [Example 423]
930 nM	c1ccc(Cc2ccc(OCCCn3cnc4ncccc43)cc2)cc1 [Example 341B]
628 nM	NC(=O)N1CCN(CC2Cc3cc(Cc4ccccc4)ccc3O2)CC1 (centres unmarked) [Example 337]
2750 nM	CC(CN1CCCCCC1)Oc1ccc(Cc2ccccc2)cc1 (centres unmarked) [Example 404]
7050 nM	c1ccc(COc2ccc(OCCn3cnc4ccncc43)cc2)cc1 [Example 347A]

IC50	SMILES
520 nM	c1ccc(Cc2ccc(OCCN3CCCC3)cc2)nc1 [Example 138]
284 nM	NC(=O)C1CCN(CCOc2ccc(Cc3ccsc3)cc2)CC1 [Example 230]
360 nM	c1ccc(Oc2ccc(OCCCn3ccc4ncnc-4c3)cc2)cc1 [Example 351C]
1350 nM	CCOC(=O)C1CCN(CCOc2ccc(Cc3cccs3)cc2)CC1 [Example 310]
1900 nM	c1ccc2cc(COc3ccc(OCCN4CCCC4)cc3)ccc2c1 [Example 200]
490 nM	NC(=O)C1CCCN(CCOc2ccc(Oc3ccccc3)cc2)C1 (centres unmarked) [Example 253]
380 nM	c1ccc(COc2ccc(OCCn3ccc4ncnc-4c3)cc2)cc1 [Example 347C]
640 nM	Fc1ccccc1COc1ccc(OCCN2CCCC2)cc1 [Example 207]
1280 nM	c1ccc(Cc2ccc(OCCCn3cnc4ccncc43)cc2)cc1 [Example 356A]
100 nM	Fc1cccc(Cc2ccc(OCCN3CCCC3)cc2)c1 [Example 142]
167 nM	NC(=O)C1CCN(CC2Cc3cc(Cc4ccccc4)ccc3O2)CC1 (centres unmarked) [Example 281]
620 nM	Fc1cccc(COc2ccc(OCCN3CCCC3)cc2)c1 [Example 211]
216 nM	C1=CC2CC1CN2CCOc1ccc(Cc2ccccc2)cc1 (centres unmarked) [Example 497]
2230 nM	Fc1ccc(Oc2ccc(OCCn3cnc4ccncc43)cc2)cc1 [Example 355A]
580 nM	COC(=O)CCNCCCOc1ccc(Cc2ccccc2)cc1 [Example 267]
11800 nM	[O-][S+](CCN1CCCC1)c1ccc(Cc2ccccc2)cc1 (centres unmarked) [Example 69]
1530 nM	NC(=O)C1CCN(CCOc2ccc(Cc3ccccc3)s2)CC1 [Example 369]
80 nM	Oc1ccc(Cc2ccc(OCCN3CCCC3)cc2)cc1 [Example 137]
1150 nM	Fc1ccc(COc2ccc(OCCN3CCCC3)cc2)cc1 [Example 205]
6600 nM	O=C(Nc1ccccc1)OC[C@@H]1CCCN1CCOc1ccc(Cc2ccccc2)cc1 [Example 428]
510 nM	c1ccc(Oc2ccc(OCCN3CCCC3)nc2)cc1 [Example 65]
2450 nM	c1ccc(Cc2ccc(OCCNC3CCCCC3)cc2)cc1 [Example 240]

IC50	SMILES
127 nM	NC(=O)C1CCN(CCOc2ccc(Oc3ccccc3)cc2)CC1 [Example 252]
13600 nM	c1ccc(Oc2ccc(OCCCn3cnc4cccnc43)cc2)cc1 [Example 350A]
500 nM	c1ccc2ncc(Cc3ccc(OCCN4CCCC4)cc3)cc2c1 [Example 132]
1750 nM	c1ccc2ncc(COc3ccc(OCCN4CCCC4)cc3)cc2c1 [Example 201]
913 nM	N=C(N)C1CCN(CCOc2ccc(Cc3ccccc3)cc2)CC1 [Example 449]
600 nM	Fc1ccc(Oc2ccc(OCCn3cnc4ncccc43)cc2)cc1 [Example 354B]
8900 nM	c1ccc(Cc2ccc(OCCCn3cnc4cccnc43)cc2)cc1 [Example 341A]
2120 nM	c1ccc(Cc2ccc(OCCn3ccc4ncccc43)cc2)cc1 [Example 342]
280 nM	Fc1ccccc1Cc1ccc(OCCN2CCCC2)cc1 [Example 141]
42 nM	COC(=O)CCN(C)CCCOc1ccc(Cc2ccccc2)cc1 [Example 413]
7700 nM	COC(=O)C1CC2CC1CN(CCOc1ccc(Cc3ccccc3)cc1)C2 (centres unmarked) [Example 504]
790 nM	c1ccc(Oc2ccc(OCCn3cnc4ccncc43)cc2)cc1 [Example 349A]
180 nM	NC1CCN(CCOc2ccc(Cc3ccccc3)cc2)CC1 [Example 455]
2010 nM	CCC(CN1CCCC1)Oc1ccc(Cc2ccccc2)cc1 (centres unmarked) [Example 405]
630 nM	c1ccc(Cc2ccc(OCCNC3CCCC3)cc2)cc1 [Example 241]
200 nM	c1ccc(Oc2ccc(OCCn3ccc4ncnc-4c3)cc2)cc1 [Example 349C]
730 nM	NC(=O)C1CCN(CCOc2ccc(Cc3ccccc3)cn2)CC1 [Example 147]
154 nM	O=C(CCNCCCCOc1ccc(Cc2ccccc2)cc1)OCc1ccccc1 [Example 273]
580 nM	Fc1ccc(Cc2ccc(OCCN3CCCC3)cc2)cc1 [Example 139]
220 nM	NC(=O)C1CCN(CCOc2ccc(Cc3cccs3)cc2)CC1 [Example 229]
280 nM	NCCOc1ccc(Cc2ccccc2)cc1 [Example 496]
528 nM	NC(=O)C1CCN(CC2Cc3cc(Oc4ccccc4)ccc3O2)CC1 (centres unmarked) [Example 290]

IC50	SMILES
13100 nM	c1ccc(Cc2ccc(OCCn3cnc4ccccc43)cc2)cc1 [Example 339]
1440 nM	O=C(OCc1ccccc1)C1CCCN1CCCOc1ccc(Cc2ccccc2)cc1 (centres unmarked) [Example 258]
608 nM	CNC(=O)C1CCN(CCOc2ccc(Oc3ccccc3)cc2)CC1 [Example 255]
750 nM	c1ccc(Cc2ccc(OCCCn3cnc4cnccc43)cc2)cc1 [Example 356B]
630 nM	CC(CN(C)CCCOc1ccc(Cc2ccccc2)cc1)C(=O)O (centres unmarked) [Example 432]
1180 nM	Fc1ccc(Oc2ccc(OCCn3cccc4ncnc3-4)cc2)cc1 [Example 354C]
1260 nM	CCOC(=O)C1CCN(CCOc2ccc(Oc3ccccc3)cc2)CC1 [Example 254]
490 nM	NC(=O)C1CCN(CCOc2ccc(Cc3cccc(F)c3)cc2)CC1 [Example 233]
604 nM	CNC(=O)C1CCN(CC2Cc3cc(Cc4ccccc4)ccc3O2)CC1 (centres unmarked) [Example 295]
1250 nM	CCOC(=O)CCNCCCCCOc1ccc(Cc2ccccc2)cc1 [Example 274]
43 nM	c1csc(Cc2ccc(OCCN3CCCC3)cc2)c1 [Example 133]
3800 nM	CC(CN1CCCCC1)Oc1ccc(Cc2ccccc2)cc1 (centres unmarked) [Example 403]
290 nM	O=C(O)[C@@H]1CCCN1CCCOc1ccc(Cc2ccccc2)cc1 [Example 430]
2480 nM	COC(=O)C1CN(CCCOc2ccc(Cc3ccccc3)cc2)CCC1=O (centres unmarked) [Example 262]
16000 nM	Clc1cc(OCCN2CCCC2)ccc1Cc1ccccc1 [Example 114]
2400 nM	CCOC(=O)C1C2CN(CCOc3ccc(Cc4ccccc4)cc3)CC21 (centres unmarked) [Example 325]
660 nM	CNC(=O)CCNCCCOc1ccc(Cc2ccccc2)cc1 [Example 422]
1850 nM	CCOC(=O)C1CCN(CC2Cc3cc(Oc4ccccc4)ccc3O2)CC1 (centres unmarked) [Example 291]
830 nM	CCOC(=O)CCN(CCCOc1ccc(Cc2ccccc2)cc1)Cc1cccnc1 [Example 414]
220 nM	c1ccc(Cc2ccc(OCCN3CC4CCC3C4)cc2)cc1 (centres unmarked) [Example 499]
910 nM	Fc1ccc(Oc2ccc(OCCn3cnc4cnccc43)cc2)cc1 [Example 355B]
693 nM	O=C(O)C1CCN(CCOc2ccc(Cc3cccs3)cc2)CC1 [Example 437]

SMILES	IC50
CCOC(=O)CC1CCN(CCCOc2ccc(Cc3ccccc3)cc2)CC1 [Example 302]	2400 nM
Fc1ccc(Oc2ccc(OCCN3CCCC3)cc2)cc1 [Example 48]	390 nM
O=C(O)C1CCN(CCOc2ccc(Cc3ccccc3)s2)CC1 [Example 371]	650 nM

Same assay, conditions: human whole blood, A23187 20 mcg/ml; read-out: Inhibition of Calcium Ionophore-Induced LTB4 Production in Human Blood IC50 HWB

IC50	SMILES
420 nM	CC(=O)NC1CCN(CCOc2ccc(Cc3ccccc3)cc2)C1 (centres unmarked) [Example 256]
